Experiment: Phase I multiple ascending-dose study: safety and tolerability (treatment-emergent adverse events)
Type: in vivo, human (healthy volunteers)
Experimental: A single-center, randomized, double-blind, placebo-controlled phase I study (NCT03554993) with a MAD component was performed in the UK between May 2018 and July 2019. Thirty-seven healthy volunteers of any race, ethnicity, or sex were enrolled. The inclusion criteria were 18 to 55 years of age inclusive, body mass index 18 to 33 kg/m^2, and physical examination by the investigator without clinically significant findings. Subjects were excluded if any clinically significant medical history, laboratory abnormality, psychiatric illness, or other condition existed that would place the subject at unacceptable risk by participating in the study. Pregnancy prevention guidance was provided as per Clinical Trial Facilitation Group recommendations. Subjects were randomly assigned to daily oral doses of CC-99677 or placebo. Subjects were dosed daily for 14 days. […] Both the investigator and subjects were blinded to the treatment arm. Safety assessments, including physical examinations, clinical laboratory tests, and collection of adverse events (AEs) were performed and graded using MedDRA version 22.0 and the US Food and Drug Administration (FDA) Toxicity Grading Scale for Healthy Adult and Adolescent Volunteers. The primary outcome of this trial was the safety and tolerability of multiple daily doses of CC-99677.

CCOCc1cnc(Cl)nc1Oc1ccc2c(ccc3sc4c(c32)NC[C@@H](C)NC4=O)n1 [CC-99677]
3 (60.0) n (%): Subjects with ≥ 1 treatment-emergent AE (10 mg daily, 14 days (n = 5))
1 (16.7) n (%): TEAE: Chapped lips (30 mg daily, 14 days (n = 6)) | TEAE: Dizziness (30 mg daily, 14 days (n = 6)) | TEAE: Infections and infestations (30 mg daily, 14 days (n = 6)) | TEAE: Nasopharyngitis (30 mg daily, 14 days (n = 6)) | TEAE: Nervous system disorders (30 mg daily, 14 days (n = 6)) | TEAE: Rectal hemorrhage (30 mg daily, 14 days (n = 6)) | Subjects with ≥ 1 treatment-emergent AE (60 mg daily, 14 days (n = 6)) | TEAE: Headache (60 mg daily, 14 days (n = 6))
4 (66.7) n (%): Subjects with ≥ 1 treatment-emergent AE (30 mg daily, 14 days (n = 6))
1 (20.0) n (%): TEAE: Dizziness (10 mg daily, 14 days (n = 5)) | TEAE: Dyspepsia (10 mg daily, 14 days (n = 5)) | TEAE: Ear and labyrinth disorders (10 mg daily, 14 days (n = 5)) | TEAE: Ear pain (10 mg daily, 14 days (n = 5)) | TEAE: Infections and infestations (10 mg daily, 14 days (n = 5)) | TEAE: Injury, poisoning, and procedural complications (10 mg daily, 14 days (n = 5)) | TEAE: Insomnia (10 mg daily, 14 days (n = 5)) | TEAE: Muscle strain (10 mg daily, 14 days (n = 5)) | TEAE: Oropharyngeal pain (10 mg daily, 14 days (n = 5)) | TEAE: Psychiatric disorders (10 mg daily, 14 days (n = 5)) | TEAE: Rash pustular (10 mg daily, 14 days (n = 5)) | TEAE: Respiratory, thoracic, and mediastinal disorders (10 mg daily, 14 days (n = 5)) | TEAE: Sensation of foreign body (10 mg daily, 14 days (n = 5)) | TEAE: Vessel puncture site pain (10 mg daily, 14 days (n = 5))
2 (33.3) n (%): TEAE: Gastrointestinal disorders (30 mg daily, 14 days (n = 6)) | TEAE: Musculoskeletal and connective tissue disorders (30 mg daily, 14 days (n = 6)) | TEAE: Myalgia (30 mg daily, 14 days (n = 6))
0 n (%): TEAE: Abdominal pain (10 mg daily, 14 days (n = 5)) | TEAE: Alanine aminotransferase increased (10 mg daily, 14 days (n = 5)) | TEAE: Aspartate aminotransferase increased (10 mg daily, 14 days (n = 5)) | TEAE: Back pain (10 mg daily, 14 days (n = 5)) | TEAE: Blood creatine phosphokinase increased (10 mg daily, 14 days (n = 5)) | TEAE: Catheter site related reaction (10 mg daily, 14 days (n = 5)) | TEAE: Chapped lips (10 mg daily, 14 days (n = 5)) | TEAE: Constipation (10 mg daily, 14 days (n = 5)) | TEAE: Diarrhea (10 mg daily, 14 days (n = 5)) | TEAE: Dysmenorrhea (10 mg daily, 14 days (n = 5)) | TEAE: Flushing (10 mg daily, 14 days (n = 5)) | TEAE: Hot flush (10 mg daily, 14 days (n = 5)) | TEAE: Investigations (10 mg daily, 14 days (n = 5)) | TEAE: Musculoskeletal and connective tissue disorders (10 mg daily, 14 days (n = 5)) | TEAE: Musculoskeletal pain (10 mg daily, 14 days (n = 5)) | TEAE: Myalgia (10 mg daily, 14 days (n = 5)) | TEAE: Nasopharyngitis (10 mg daily, 14 days (n = 5)) | TEAE: Rectal hemorrhage (10 mg daily, 14 days (n = 5)) | TEAE: Reproductive system and breast disorders (10 mg daily, 14 days (n = 5)) | TEAE: Vascular disorders (10 mg daily, 14 days (n = 5)) | TEAE: Vessel puncture site reaction (10 mg daily, 14 days (n = 5)) | TEAE: Abdominal pain (30 mg daily, 14 days (n = 6)) | TEAE: Alanine aminotransferase increased (30 mg daily, 14 days (n = 6)) | TEAE: Aspartate aminotransferase increased (30 mg daily, 14 days (n = 6)) | TEAE: Back pain (30 mg daily, 14 days (n = 6)) | TEAE: Blood creatine phosphokinase increased (30 mg daily, 14 days (n = 6)) | TEAE: Catheter site related reaction (30 mg daily, 14 days (n = 6)) | TEAE: Constipation (30 mg daily, 14 days (n = 6)) | TEAE: Diarrhea (30 mg daily, 14 days (n = 6)) | TEAE: Dysmenorrhea (30 mg daily, 14 days (n = 6)) | TEAE: Dyspepsia (30 mg daily, 14 days (n = 6)) | TEAE: Ear and labyrinth disorders (30 mg daily, 14 days (n = 6)) | TEAE: Ear pain (30 mg daily, 14 days (n = 6)) | TEAE: Flushing (30 mg daily, 14 days (n = 6)) | TEAE: General disorders and administration site conditions (30 mg daily, 14 days (n = 6)) | TEAE: Headache (30 mg daily, 14 days (n = 6)) | TEAE: Hot flush (30 mg daily, 14 days (n = 6)) | TEAE: Injury, poisoning, and procedural complications (30 mg daily, 14 days (n = 6)) | TEAE: Insomnia (30 mg daily, 14 days (n = 6)) | TEAE: Investigations (30 mg daily, 14 days (n = 6)) | TEAE: Muscle strain (30 mg daily, 14 days (n = 6)) | TEAE: Musculoskeletal pain (30 mg daily, 14 days (n = 6)) | TEAE: Nausea (30 mg daily, 14 days (n = 6)) | TEAE: Oropharyngeal pain (30 mg daily, 14 days (n = 6)) | TEAE: Psychiatric disorders (30 mg daily, 14 days (n = 6)) | TEAE: Rash pustular (30 mg daily, 14 days (n = 6)) | TEAE: Reproductive system and breast disorders (30 mg daily, 14 days (n = 6)) | TEAE: Respiratory, thoracic, and mediastinal disorders (30 mg daily, 14 days (n = 6)) | TEAE: Sensation of foreign body (30 mg daily, 14 days (n = 6)) | TEAE: Vascular disorders (30 mg daily, 14 days (n = 6)) | TEAE: Vessel puncture site pain (30 mg daily, 14 days (n = 6)) | TEAE: Vessel puncture site reaction (30 mg daily, 14 days (n = 6)) | TEAE: Abdominal pain (60 mg daily, 14 days (n = 6)) | TEAE: Alanine aminotransferase increased (60 mg daily, 14 days (n = 6)) | TEAE: Aspartate aminotransferase increased (60 mg daily, 14 days (n = 6)) | TEAE: Back pain (60 mg daily, 14 days (n = 6)) | TEAE: Blood creatine phosphokinase increased (60 mg daily, 14 days (n = 6)) | TEAE: Catheter site related reaction (60 mg daily, 14 days (n = 6)) | TEAE: Chapped lips (60 mg daily, 14 days (n = 6)) | TEAE: Constipation (60 mg daily, 14 days (n = 6)) | TEAE: Diarrhea (60 mg daily, 14 days (n = 6)) | TEAE: Dizziness (60 mg daily, 14 days (n = 6)) | TEAE: Dysmenorrhea (60 mg daily, 14 days (n = 6)) | TEAE: Dyspepsia (60 mg daily, 14 days (n = 6)) | TEAE: Ear and labyrinth disorders (60 mg daily, 14 days (n = 6)) | TEAE: Ear pain (60 mg daily, 14 days (n = 6)) | TEAE: Flushing (60 mg daily, 14 days (n = 6)) | TEAE: Gastrointestinal disorders (60 mg daily, 14 days (n = 6)) | TEAE: General disorders and administration site conditions (60 mg daily, 14 days (n = 6)) | TEAE: Hot flush (60 mg daily, 14 days (n = 6)) | TEAE: Infections and infestations (60 mg daily, 14 days (n = 6)) | TEAE: Injury, poisoning, and procedural complications (60 mg daily, 14 days (n = 6)) | TEAE: Insomnia (60 mg daily, 14 days (n = 6))
2 (40.0) n (%): TEAE: Gastrointestinal disorders (10 mg daily, 14 days (n = 5)) | TEAE: General disorders and administration site conditions (10 mg daily, 14 days (n = 5)) | TEAE: Headache (10 mg daily, 14 days (n = 5)) | TEAE: Nausea (10 mg daily, 14 days (n = 5)) | TEAE: Nervous system disorders (10 mg daily, 14 days (n = 5))

Source: paper PMC9386913 (Arthritis Research & Therapy, 2022)
